# Laboratory results: ChEMBL document CHEMBL5724914, “Linking interpersonal differences in gut microbiota composition and drug biotransformation activity” (2024)
# How the values were obtained:
# [1] = (§1) The drug is tested on Z-002 corresponding to rabbit gut metagenome with ENA study accession number: PRJEB37062 and ENA sample accession number: ERS12561802 for biotransformation under anaerobic condition. The drug concentrations were measured over 9 timepoints collected between 0 and 24 hours of incubation by liquid-chromatography-coupled mass spectrometry (LC–MS); details: 2 µM
# [2] = as §1, with “WLS-038” for “Z-002”, “human” for “rabbit”, “ERS12561745” for “ERS12561802”; details: 2 µM
# [3] = as §1, with “WLS-006” for “Z-002”, “human” for “rabbit”, “ERS12561741” for “ERS12561802”; details: 2 µM
# [4] = human gut metagenome, 24 h, 2 µM
# [5] = human gut metagenome, 24 h, 2 µM; remark: listed apart in the source
# [6] = human gut metagenome, 24 h, 2 µM; remark: listed apart in the source
# [7] = human gut metagenome, 24 h, 2 µM; remark: listed apart in the source
# [8] = human gut metagenome, 24 h, 2 µM; remark: listed apart in the source
# [9] = human gut metagenome, 24 h, 2 µM; remark: listed apart in the source
# [10] = human gut metagenome, 24 h, 2 µM; remark: listed apart in the source
# [11] = human gut metagenome, 24 h, 2 µM; remark: listed apart in the source
# [12] = as §1, with “Z-004” for “Z-002”, “to” for “to rabbit gut”, “ERS12561804” for “ERS12561802”; details: 2 µM
# [13] = as §1, with “Z-026” for “Z-002”, “to” for “to rabbit gut”, “ERS12561825” for “ERS12561802”; details: 2 µM
# [14] = as §1, with “Z-013” for “Z-002”, “ERS12561813” for “ERS12561802”; details: 2 µM
# [15] = as §1, with “Z-005” for “Z-002”, “to” for “to rabbit gut”, “ERS12561805” for “ERS12561802”; details: 2 µM
# Also: call rule not given here.
Structure (SMILES),Bacterial Biotransformation [2],Bacterial Biotransformation [3],Bacterial Biotransformation [4],Bacterial Biotransformation [5],Bacterial Biotransformation [6],Bacterial Biotransformation [7],Bacterial Biotransformation [8],Bacterial Biotransformation [9],Bacterial Biotransformation [10],Bacterial Biotransformation [11],Bacterial Biotransformation [12],Bacterial Biotransformation [13],Bacterial Biotransformation [14],Bacterial Biotransformation [15],Bacterial Biotransformation [1]
N[C@@H](Cc1ccc(N(CCCl)CCCl)cc1)C(=O)O,Compound metabolized,Compound metabolized,Compound NOT metabolized,Compound NOT metabolized,Compound metabolized,Compound metabolized,Compound metabolized,Compound metabolized,–,–,–,–,–,–,Compound metabolized
CN(C)CCc1c[nH]c2ccc(CS(=O)(=O)N3CCCC3)cc12 [ALMOTRIPTAN],Compound NOT metabolized,Compound NOT metabolized,Compound NOT metabolized,Compound NOT metabolized,Compound metabolized,Compound metabolized,Compound NOT metabolized,Compound metabolized,Compound NOT metabolized,Compound NOT metabolized,–,–,–,–,–
CCCCC(=O)O[C@]1(C(=O)CO)[C@@H](C)C[C@H]2[C@@H]3CCC4=CC(=O)C=C[C@]4(C)[C@@]3(F)[C@@H](O)C[C@@]21C [BETAMETHASONE VALERATE],Compound metabolized,Compound metabolized,Compound NOT metabolized,Compound NOT metabolized,Compound metabolized,Compound metabolized,Compound NOT metabolized,Compound NOT metabolized,Compound metabolized,Compound NOT metabolized,–,–,–,–,–
Cc1nc(Nc2ncc(C(=O)Nc3c(C)cccc3Cl)s2)cc(N2CCN(CCO)CC2)n1 [DASATINIB ANHYDROUS],Compound metabolized,Compound metabolized,Compound metabolized,Compound metabolized,Compound metabolized,Compound metabolized,Compound NOT metabolized,Compound metabolized,Compound NOT metabolized,Compound metabolized,–,–,–,–,–
CN1CCN(C2=Nc3ccccc3Oc3ccc(Cl)cc32)CC1.O=C(O)CCC(=O)O [LOXAPINE SUCCINATE],Compound NOT metabolized,Compound NOT metabolized,Compound NOT metabolized,Compound NOT metabolized,Compound NOT metabolized,Compound NOT metabolized,Compound NOT metabolized,Compound NOT metabolized,Compound NOT metabolized,Compound NOT metabolized,–,–,–,–,–

# Now from value to compound, other results behind:
Bacterial Biotransformation [2],Bacterial Biotransformation [3],Bacterial Biotransformation [4],Bacterial Biotransformation [5],Bacterial Biotransformation [6],Bacterial Biotransformation [7],Bacterial Biotransformation [8],Bacterial Biotransformation [9],Bacterial Biotransformation [10],Bacterial Biotransformation [11],Bacterial Biotransformation [12],Bacterial Biotransformation [13],Bacterial Biotransformation [14],Bacterial Biotransformation [15],Structure (SMILES),Bacterial Biotransformation [1]
Compound metabolized,Compound metabolized,Compound metabolized,Compound metabolized,Compound metabolized,Compound metabolized,Compound metabolized,Compound metabolized,Compound metabolized,Compound metabolized,Compound metabolized,–,–,–,CC(=O)Oc1ccc(C(c2ccc(OC(C)=O)cc2)c2ccccn2)cc1 [BISACODYL],–
Compound NOT metabolized,Compound metabolized,Compound metabolized,Compound metabolized,Compound NOT metabolized,Compound metabolized,Compound NOT metabolized,Compound NOT metabolized,Compound NOT metabolized,Compound NOT metabolized,–,–,–,–,COCCCC/C(=N\OCCN)c1ccc(C(F)(F)F)cc1.O=C(O)/C=C\C(=O)O [FLUVOXAMINE MALEATE],–
Compound metabolized,Compound metabolized,Compound metabolized,Compound metabolized,Compound metabolized,Compound metabolized,–,Compound metabolized,Compound metabolized,Compound metabolized,–,–,–,–,CCOC(=O)C1=C(C)NC(C)=C(C(=O)OC)C1c1cccc([N+](=O)[O-])c1 (configuration not stated) [NITRENDIPINE],–
Compound metabolized,Compound NOT metabolized,Compound NOT metabolized,Compound NOT metabolized,Compound metabolized,Compound NOT metabolized,Compound NOT metabolized,Compound metabolized,Compound metabolized,Compound NOT metabolized,–,–,–,–,N#Cc1ccc2c(c1)N(CCCN1CCC(O)CC1)c1ccccc1S2 [PERICIAZINE],–
Compound metabolized,Compound metabolized,Compound NOT metabolized,Compound NOT metabolized,Compound metabolized,Compound metabolized,Compound NOT metabolized,Compound metabolized,Compound metabolized,Compound metabolized,–,–,–,–,O=C([O-])C[C@H](O)C[C@H](O)/C=C/c1c(C2CC2)nc2ccccc2c1-c1ccc(F)cc1.O=C([O-])C[C@H](O)C[C@H](O)/C=C/c1c(C2CC2)nc2ccccc2c1-c1ccc(F)cc1.[Ca+2] [PITAVASTATIN CALCIUM],–
Compound NOT metabolized,–,Compound NOT metabolized,Compound metabolized,Compound metabolized,Compound NOT metabolized,Compound NOT metabolized,Compound metabolized,Compound NOT metabolized,Compound metabolized,Compound NOT metabolized,Compound metabolized,Compound metabolized,Compound NOT metabolized,CNNCc1ccc(C(=O)NC(C)C)cc1 [PROCARBAZINE],–
